Consider seven compounds from patent US10800789B2, “Antiviral compounds” (Gilead Pharmasset LLC, priority 2012, dated 2020).

Like-named read-outs stand apart in the source and are kept apart here.

For test [1], the system named is NS5A chimeric genotype 1b Con1 replicon with genotype 4a ED43 strain NS5A gene. Put plainly: Replicon assay, genotype 4a NS5A chimera. It is filed as cell-based, HCV. The conditions noted are these: Hepatitis C virus.
In test [2] the test system is NS5A chimeric genotype 1b Con1 replicon with genotype 3a S52 strain NS5A gene. Put plainly: Replicon assay, genotype 3a NS5A chimera. The conditions noted are these: Hepatitis C virus. It is filed as cell-based, HCV. Background: A replicon is a self-replicating genome or part of one, used to study replication in cells.
Test [3] deals with stable HCV 1a RLuc replicon cells (dicistronic genotype 1a H77 replicon). Put plainly: Renilla luciferase HCV replicon reporter assay, genotype 1a. It is filed as cell-based. The conditions noted are these: Hepatitis C virus, 72 h, stable 1a H77 RLuc replicon cells. As for the experimental part:
(§1) Evaluation of Cell-Based Anti-HCV Activity:
(§2) Antiviral potency (EC50) was determined using a Renilla luciferase (RLuc)-based HCV replicon reporter assay. To perform the assay for genotype 1 and 2a JFH-1, stable HCV 1a RLuc replicon cells (harboring a dicistronic genotype 1a H77 replicon that encodes a RLuc reporter), stable HCV 1b RLuc replicon cells (harboring a dicistronic genotype 1b Con1 replicon that encodes a RLuc reporter), or stable HCV 2a JFH-1 Rluc replicon cells (harboring a dicistronic genotype 2a JFH-1 replicon that encodes a RLuc reporter; with L31 present in NS5A) were dispensed into 384-well plates for EC50 assays. To perform the assay for genotype 2a (with M31 present in NS5A) or 2b, NS5A chimeric genotype 2a JFH-1 replicons that encodes a RLuc-Neo reporter and either genotype 2a J6 strain NS5A gene or genotype 2b MD2b-1 strain NS5A gene (both with M31 present) respectively, were either transiently transfected (t) into Huh-Lunet cells or were established as stably replicating replicon cells (s) is provided. Either cells were dispensed into 384-well plates for EC50 assays. To perform the assay for genotype 3 and 4, NS5A chimeric genotype 1b Con1 replicons that encodes a Pi-RLuc reporter and either genotype 3a S52 strain NS5A gene or genotype 4a ED43 strain NS5A gene respectively, were transiently transfected (t) into Huh-Lunet cells, which were subsequently dispensed into 384-well plates. Compounds were dissolved in DMSO at a concentration of 10 mM and diluted in DMSO either manually or using an automated pipeting instrument. Serially 3-fold diluted compounds were either manually mixed with cell culture media and added to the seeded cells or directly added to the cells using an automated instrument. DMSO was used as a negative (solvent; no inhibition) control, and the protease inhibitor ITMN-191 was included at a concentration>100×EC50 as a positive control. 72 hours later, cells were lysed and Renilla luciferase activity quantified as recommended by the manufacturer (Promega-Madison, Wis.). Non-linear regression was performed to calculate EC50 values.

Test [4] deals with stable HCV 2a JFH-1 Rluc replicon cells (L31 present in NS5A). Put plainly: Renilla luciferase HCV replicon reporter assay, genotype 2a JFH-1. It counts as cell-based. The conditions noted are these: Hepatitis C virus. Here is the method: as §1, §2
In test [5] the test system is NS5A chimeric genotype 2a JFH-1 replicon with genotype 2b MD2b-1 strain NS5A gene (M31 present). Put plainly: Replicon assay, genotype 2b NS5A chimera. It is filed as cell-based, HCV. The conditions noted are these: Hepatitis C virus. As for the experimental part: as §1, §2
Test [6] has as its system stable HCV 1b RLuc replicon cells (dicistronic genotype 1b Con1 replicon). Nature of the test: Renilla luciferase HCV replicon reporter assay, genotype 1b. It is filed as cell-based. The conditions noted are these: Hepatitis C virus, 72 h, stable 1b Con1 RLuc replicon cells, 72 hours; read-out: 1b. Here is the method:
as §1, §2

The subject of test [7] is NS5A chimeric genotype 2a JFH-1 replicon with genotype 2a J6 strain NS5A gene (M31 present). Put plainly: Replicon assay, genotype 2a J6 NS5A chimera. It counts as cell-based, HCV. The conditions noted are these: Hepatitis C virus. As for the experimental part: as §1, §2
[8] abbreviates: read-out: 4a (s) (nM), genotype 4a NS5A chimeric replicon, stable replicon cells (s).
Setting [9] is: read-out: 4a (s), (s), activity range.
Setting [10] is: read-out: 3a (s) (nM), genotype 3a NS5A chimeric replicon, stable replicon cells (s).
Where [11] appears, read: read-out: 3a (s), (s), activity range.
Where [12] appears, read: read-out: 2a JFH (nM), genotype 2a JFH-1 replicon (L31 in NS5A), stable cells.
The mark [13] stands for this setting: read-out: 2a JFH, stable 2a JFH-1 Rluc replicon cells, L31 in NS5A, activity range.
[14] abbreviates: 2BS, read-out: 2b (s), stably replicating replicon cells (s), activity range.
[15] abbreviates: read-out: 2b (s) (nM), genotype 2b MD2b-1 NS5A chimeric replicon (M31), stably replicating replicon cells (s).
[16] abbreviates: read-out: 2a J6 (t) (nM), genotype 2a J6 NS5A chimeric replicon (M31), transiently transfected (t) into Huh-Lunet cells.
The mark [17] stands for this setting: read-out: 2a J6 (t), transiently transfected (t) into Huh-Lunet cells, activity range.

With `COC(=O)N[C@H](C(=O)N1C[C@@H](C)C[C@H]1c1ncc(-c2ccc3c(c2)COc2cc4c(ccc5nc([C@@H]6CC[C@H](C)N6C(=O)[C@@H](NC(=O)OC)[C@@H](C)OC)[nH]c54)cc2-3)[nH]1)[C@@H](C)OC` [DZ, Methyl [(2S,3R)-3-methoxy-1-{(2S,5S)-2-[9-(2-{(2S,5S)-1-[N-(methoxycarbonyl)-O-methyl-L-threonyl]-4-methylpyrrolidin-2-yl}-1H-imidazol-5-yl)-1,11-dihydroisochromeno[4′,3′:6,7]naphtho[1,2-d]imidazol-2-yl]-5-methylpyrrolidin-1-yl}-1-oxobutan-2-yl]carbamate], the EC50 is 0.02 nM in test [1] (setting [8]); less than 0.1 nM in test [1] (setting [9]); 0.089 nM in test [2] (setting [10]); less than 0.1 nM in test [2] (setting [11]); 21 pM in test [3]; less than 100 pM in test [3] (activity range). Further, the EC50 in test [4] (setting [12]) was 0.016 nM; in test [4] (setting [13]) it was less than 0.1 nM; in test [5] (setting [14]), 0.1 to 0.999 nM; in test [5] (setting [15]), 0.173 nM; in test [5] (read-out: 2b (t) (nM), genotype 2b MD2b-1 NS5A chimeric replicon (M31), transiently transfected (t)), 0.072 nM; in test [5] (read-out: 2b (t), transiently transfected (t) into Huh-Lunet cells, activity range) it was less than 0.1 nM. Besides, the figures for the EC50 in test [6], in test [7] (setting [16]) and in test [7] (setting [17]) were 35 pM, 0.054 nM and less than 0.1 nM, respectively.
Take `CC[C@H](C)[C@H](NC(=O)OC)C(=O)N1[C@@H](C)CC[C@H]1c1ncc(-c2ccc3c(c2)COc2cc4c(ccc5nc([C@@H]6CC[C@H](C)N6C(=O)[C@@H](NC(=O)OC)[C@@H](C)CC)[nH]c54)cc2-3)[nH]1` [EC, Methyl {(2S,3S)-1-[(2S,5S)-2-(9-{2-[(2S,5S)-1-{(2S,3S)-2-[(methoxycarbonyl)amino]-3-methylpentanoyl}-5-methylpyrrolidin-2-yl]-1H-imidazol-5-yl}-1,11-dihydroisochromeno[4′,3′:6,7]naphtho[1,2-d]imidazol-2-yl)-5-methylpyrrolidin-1-yl]-3-methyl-1-oxopentan-2-yl}carbamate]: the EC50 in test [1] (setting [8]) was 0.004 nM; in test [1] (setting [9]), less than 0.1 nM; in test [2] (setting [10]), 0.029 nM; in test [2] (setting [11]), less than 0.1 nM; in test [3], 8 pM; in test [3] (activity range) it was less than 100 pM. Further, the EC50 is 0.015 nM in test [4] (setting [12]); less than 0.1 nM in test [4] (setting [13]); 0.1 to 0.999 nM in test [5] (setting [14]); 0.4 nM in test [5] (setting [15]); 17 pM in test [6]; 0.429 nM in test [7] (setting [16]). Also, the EC50 in test [7] (setting [17]) fell in the range of 0.1 to 0.999 nM.
As to `COC(=O)N[C@H](C(=O)N1[C@@H](C)CC[C@H]1c1ncc(-c2ccc3c(c2)COc2cc4c(ccc5nc([C@@H]6C[C@H](C)CN6C(=O)[C@@H](NC(=O)OC)[C@H](C)OC)[nH]c54)cc2-3)[nH]1)C(C)C` [FU, Methyl {(2S)-1-[(2S,5S)-2-(5-{2-[(2S,4S)-1-{(2S,3S)-3-methoxy-2-[(methoxycarbonyl)amino]butanoyl}-4-methylpyrrolidin-2-yl]-1,11-dihydroisochromeno[4′,3′:6,7]naphtho[1,2-d]imidazol-9-yl}-1H-imidazol-2-yl)-5-methylpyrrolidin-1-yl]-3-methyl-1-oxobutan-2-yl}carbamate], the EC50 in test [1] (setting [8]) is 0.018 nM; in test [1] (setting [9]) it was less than 0.1 nM; in test [2] (setting [10]), 0.337 nM; in test [2] (setting [11]), 0.1 to 0.999 nM; in test [3] it was 28 pM; in test [3] (activity range), less than 100 pM. Moreover, the EC50 in test [4] (setting [12]) was 0.021 nM; in test [4] (setting [13]), less than 0.1 nM; in test [5] (setting [14]), 0.1 to 0.999 nM; in test [5] (setting [15]), 0.347 nM; in test [6] it was 32 pM.
Take `COC[C@H]1C[C@@H](c2ncc(-c3ccc4c(c3)COc3cc5c(ccc6nc([C@@H]7CC[C@H](C)N7C(=O)[C@@H](NC(=O)OC)C(C)C)[nH]c65)cc3-4)[nH]2)N(C(=O)[C@@H](NC(=O)OC)C2CCOCC2)C1` [GI, Methyl [(2S)-1-{(2S,4S)-2-[9-(2-{(2S,5S)-1-[(2S)-2-[(methoxycarbonyl)amino]-2-(tetrahydro-2H-pyran-4-yl)acetyl]-4-(methoxymethyl)pyrrolidin-2-yl}-1H-imidazol-5-yl)-1,11-dihydroisochromeno[4′,3′:6,7]naphtho[1,2-d]imidazol-2-yl]-5-methylpyrrolidin-1-yl}-3-methyl-1-oxobutan-2-yl]carbamate]: the EC50 in test [1] (setting [8]) is 0.022 nM; in test [1] (setting [9]), less than 0.1 nM; in test [2] (setting [10]), 0.126 nM; in test [2] (setting [11]), 0.1 to 0.999 nM; in test [3], 55 pM; in test [3] (activity range) it was less than 100 pM. Besides, the EC50 in test [4] (setting [12]) was 0.025 nM; in test [4] (setting [13]), less than 0.1 nM; in test [5] (setting [14]), 0.1 to 0.999 nM; in test [5] (setting [15]) it was 0.193 nM; in test [6], 64 pM.
Take `CC[C@H]1CC[C@@H](c2ncc(-c3ccc4c(c3)COc3cc5c(ccc6nc([C@@H]7CC[C@H](C)N7C(=O)[C@@H](NC(=O)OC)[C@@H](C)CC)[nH]c65)cc3-4)[nH]2)N1C(=O)C(NC(=O)OC)C1CCOCC1` (some centres unmarked) [IJ]: the EC50 in test [1] (setting [8]) is 0.036 nM; in test [1] (setting [9]) it was less than 0.1 nM; in test [2] (setting [10]), 0.127 nM; in test [2] (setting [11]), 0.1 to 0.999 nM; in test [3] it was 27 pM; in test [3] (activity range), less than 100 pM. Moreover, the EC50 in test [4] (setting [12]) was 0.012 nM; in test [4] (setting [13]) it was less than 0.1 nM; in test [5] (setting [14]), 0.1 to 0.999 nM; in test [5] (setting [15]), 0.212 nM; in test [6], 29 pM.
For the compound `CC[C@H]1CC[C@@H](c2ncc(-c3ccc4c(c3)COc3cc5c(ccc6nc([C@@H]7CC[C@H](C)N7C(=O)[C@@H](NC(=O)OC)C7CCOCC7)[nH]c65)cc3-4)[nH]2)N1C(=O)[C@@H](NC(=O)OC)[C@@H](C)CC` [IM], the EC50 in test [1] (setting [8]) is 0.043 nM; in test [1] (setting [9]), less than 0.1 nM; in test [2] (setting [10]), 0.15 nM; in test [2] (setting [11]), 0.1 to 0.999 nM; in test [3], 33 pM; in test [3] (activity range), less than 100 pM. In addition, the EC50 in test [4] (setting [12]) was 0.016 nM; in test [4] (setting [13]), less than 0.1 nM; in test [5] (setting [14]) it was 0.1 to 0.999 nM; in test [5] (setting [15]), 0.212 nM; in test [6], 40 pM.
With `CC[C@H]1CC[C@@H](c2nc3ccc4cc5c(cc4c3[nH]2)OCc2cc(-c3cnc([C@@H]4C[C@@H]6CCC[C@@H]6N4C(=O)[C@@H](NC(=O)OC)[C@@H](C)CC)[nH]3)ccc2-5)N1C(=O)[C@@H](NC(=O)OC)C1CCOCC1` [IX], the EC50 is 0.057 nM in test [1] (setting [8]); less than 0.1 nM in test [1] (setting [9]); 0.246 nM in test [2] (setting [10]); 0.1 to 0.999 nM in test [2] (setting [11]); 35 pM in test [3]; less than 100 pM in test [3] (activity range). In addition, the EC50 in test [4] (setting [12]) was 0.024 nM; in test [4] (setting [13]), less than 0.1 nM; in test [5] (setting [14]) it was 0.1 to 0.999 nM; in test [5] (setting [15]), 0.236 nM; in test [6], 52 pM.
